# Experimental data from ChEMBL document CHEMBL4406816, “Role of sulphur-heterocycles in medicinal chemistry: An update” (Eur J Med Chem, 2019).
# pEC50, pIC50: −log10 of the molar value.
# What was measured:
# HepG2 = assay: Growth inhibition of human HepG2 cells by MTT assay; type: functional
# HT-29 = assay: Growth inhibition of human HT-29 cells by MTT assay; type: functional
# NCI-H460 = assay: Growth inhibition of human NCI-H460 cells by MTT assay; type: functional
# Jurkat = assay: Anticancer activity against human Jurkat cells; type: functional, cell-based
# A-431 = assay: Anticancer activity against human A431 cells; type: functional, cell-based
# Escherichia coli = assay: Antibacterial activity against Escherichia coli; type: functional, organism-based
# Staphylococcus aureus [1] = assay: Antibacterial activity against Staphylococcus aureus; type: functional, organism-based
# Bacillus subtilis = assay: Antibacterial activity against Bacillus subtilis; type: functional, organism-based
# Pseudomonas aeruginosa = assay: Antibacterial activity against Pseudomonas aeruginosa; type: functional, organism-based
# Candida albicans = assay: […] activity against Candida albicans; type: functional, organism-based
# MCF7 [2] = assay: Cytotoxicity against human MCF7 cells after 72 hrs by MTT assay; type: functional, cell-based; conditions: MCF7, 72 h
# MCF7 [3] = assay: Potency index, ratio of doxorubicin IC50 to compound IC50 for human MCF7 cells; type: functional
# Human gammaherpesvirus 4 = assay: Antiviral activity against Epstein-Barr virus; type: functional, organism-based
# Streptococcus pneumoniae = assay: Antibacterial activity against Streptococcus pneumoniae; type: functional
# RAW264.7 = assay: Anti-inflammatory activity against mouse RAW264.7 cells assessed as inhibition of LPS-induced NO production at 50 ug/ml relative to control; type: functional; parameters: scale not given: the % may be the effect or the level left
# Alpha glucosidase = Alpha glucosidase (Homo sapiens, UniProt O43451+P10253+P14410+Q2M2H8); assay: Inhibition of alpha-glucosidase (unknown origin) using p-nitrophenyl alpha-d-glucopyranoside as substrate preincubated for 15 mins followed by substrate addition measured after 30 mins by spectrophotometric analysis; type: protein assay
# Psilocybe cubensis = assay: Antifungal activity Psilocybe cubensis; type: functional, organism-based
# Phytophthora infestans = assay: Antifungal activity Phytophthora infestans; type: functional, organism-based
# [4] = target: Prostaglandin G/H synthase 2 (Homo sapiens, UniProt P35354); assay: Inhibition of COX2 (unknown origin) by EIA
# Sequence of Prostaglandin G/H synthase 2 (P35354 whole entry): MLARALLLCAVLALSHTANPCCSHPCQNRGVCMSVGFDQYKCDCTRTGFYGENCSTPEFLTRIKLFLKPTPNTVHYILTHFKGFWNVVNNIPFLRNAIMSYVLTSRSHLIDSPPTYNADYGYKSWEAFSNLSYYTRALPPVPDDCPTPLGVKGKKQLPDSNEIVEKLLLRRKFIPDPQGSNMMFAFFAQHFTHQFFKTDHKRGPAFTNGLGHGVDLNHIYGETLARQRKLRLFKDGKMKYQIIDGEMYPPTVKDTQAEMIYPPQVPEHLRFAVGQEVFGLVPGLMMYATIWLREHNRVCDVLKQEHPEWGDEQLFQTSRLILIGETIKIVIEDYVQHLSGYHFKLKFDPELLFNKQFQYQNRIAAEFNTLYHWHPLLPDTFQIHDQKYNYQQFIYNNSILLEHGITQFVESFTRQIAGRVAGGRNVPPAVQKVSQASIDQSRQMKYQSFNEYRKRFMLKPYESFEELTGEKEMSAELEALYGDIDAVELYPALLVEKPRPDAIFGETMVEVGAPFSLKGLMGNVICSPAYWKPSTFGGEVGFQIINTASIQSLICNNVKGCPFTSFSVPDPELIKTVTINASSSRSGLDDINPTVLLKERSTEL
# Rattus norvegicus [5] = assay: Anti-inflammatory activity against carrageenan-induced Albino Wistar rat paw edema model assessed as inhibition of rat paw edema at 50 mg/kg, po after 5 hrs relative to control; type: functional
# [6] = Antioxidant activity assessed as DPPH radical scavenging activity after 30 mins under dark condition; type: functional
# Rattus norvegicus [7] = assay: Anti-inflammatory activity against carrageenan-induced Albino Wistar rat paw edema model assessed as inhibition of rat paw edema at 10 mg/kg, po pretreated for 1 hr followed by carrageenan addition measured after 1 to 4 hrs relative to control; type: functional
# Rattus norvegicus [8] = assay: Anti-inflammatory activity against carrageenan-induced Albino Wistar rat paw edema model assessed as inhibition of rat paw edema at 50 mg/kg, po pretreated for 1 hr followed by carrageenan addition measured after 1 to 4 hrs relative to control; type: functional
# [9] = target: 72 kDa type IV collagenase (Homo sapiens, UniProt P08253); assay: Inhibition of MMP2 catalytic domain (unknown origin) using Ac-PLG-[2-mercapto-4-methylpentanoyl]-LG-OC2H5 as substrate preincubated for 45 to 120 mins followed by substrate addition measured for 30 mins in 1 min time interval
# Sequence of 72 kDa type IV collagenase (P08253 whole entry, the tested form may be a part): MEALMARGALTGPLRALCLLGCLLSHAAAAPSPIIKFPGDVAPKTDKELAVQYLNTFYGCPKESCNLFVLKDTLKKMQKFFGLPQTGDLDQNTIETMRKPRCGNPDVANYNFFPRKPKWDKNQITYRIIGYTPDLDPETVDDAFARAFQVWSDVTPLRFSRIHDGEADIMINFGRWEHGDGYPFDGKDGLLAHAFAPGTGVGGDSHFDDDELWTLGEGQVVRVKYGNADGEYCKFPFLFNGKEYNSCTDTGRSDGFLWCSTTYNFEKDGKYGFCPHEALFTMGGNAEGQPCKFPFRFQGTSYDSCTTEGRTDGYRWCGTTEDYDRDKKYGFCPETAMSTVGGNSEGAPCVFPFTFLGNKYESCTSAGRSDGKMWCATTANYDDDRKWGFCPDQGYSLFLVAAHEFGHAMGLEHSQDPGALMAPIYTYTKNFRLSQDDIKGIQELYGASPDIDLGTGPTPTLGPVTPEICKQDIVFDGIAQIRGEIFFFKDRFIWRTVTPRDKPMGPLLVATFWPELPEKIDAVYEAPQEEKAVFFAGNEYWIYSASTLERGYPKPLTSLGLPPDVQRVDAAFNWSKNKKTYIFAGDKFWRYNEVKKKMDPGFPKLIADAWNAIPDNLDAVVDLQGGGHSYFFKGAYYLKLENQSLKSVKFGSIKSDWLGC
# Klebsiella pneumoniae = assay: Antibacterial activity against Klebsiella pneumoniae; type: functional, organism-based
# Leishmania amazonensis = assay: Antileishmanial activity against Leishmania amazonensis promastigotes; type: functional, organism-based
# [10] = target: Large neutral amino acids transporter small subunit 1 (Homo sapiens, UniProt Q01650); assay: Inhibition of recombinant human LAT1
# Sequence of Large neutral amino acids transporter small subunit 1 (Q01650 whole entry): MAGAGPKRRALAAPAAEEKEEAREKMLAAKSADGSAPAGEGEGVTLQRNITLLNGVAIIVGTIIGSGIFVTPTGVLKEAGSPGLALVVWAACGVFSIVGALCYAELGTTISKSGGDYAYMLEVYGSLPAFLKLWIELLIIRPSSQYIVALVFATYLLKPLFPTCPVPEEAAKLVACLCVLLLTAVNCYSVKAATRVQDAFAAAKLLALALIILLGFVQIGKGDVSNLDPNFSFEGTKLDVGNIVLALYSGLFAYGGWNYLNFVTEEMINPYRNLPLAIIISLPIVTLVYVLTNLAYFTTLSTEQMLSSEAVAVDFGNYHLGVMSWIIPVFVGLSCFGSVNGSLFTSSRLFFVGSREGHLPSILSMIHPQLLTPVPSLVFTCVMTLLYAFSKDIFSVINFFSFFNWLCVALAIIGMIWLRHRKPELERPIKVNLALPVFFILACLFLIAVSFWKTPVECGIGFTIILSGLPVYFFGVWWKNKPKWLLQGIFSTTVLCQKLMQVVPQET
# [11] = tested on: Mycobacterium tuberculosis; assay: Antitubercular activity against Mycobacterium tuberculosis; type: functional
# [12] = target: Quinolone resistance protein NorA (Staphylococcus aureus) (UniProt P0A0J7); assay: Inhibition of NorA in Staphylococcus aureus measured after 1 hr by ethidium bromide staining based agar-cartwheel assay method
# [13] = tested on: Feline immunodeficiency virus; assay: Antiviral activity against Feline immunodeficiency virus; type: functional, organism-based
# [14] = tested on: Staphylococcus epidermidis; assay: Antibacterial activity against Staphylococcus epidermidis ATCC 12228 by broth microdilution method; type: functional
# Staphylococcus aureus [15] = assay: Antibacterial activity against Staphylococcus aureus ATCC 25923 by broth microdilution method; type: functional
# Staphylococcus aureus [16] = assay: Antibacterial activity against Staphylococcus aureus ATCC 6538 by broth microdilution method; type: functional
# MCF7 [17] = assay: Growth inhibition of human MCF7 cells after 48 hrs by SRB assay; type: functional; conditions: MCF7, 48 h
# [18] = target: Peroxisome proliferator-activated receptor gamma (Homo sapiens, UniProt P37231); assay: Inhibition of PPARgamma (unknown origin)
# Sequence of Peroxisome proliferator-activated receptor gamma (P37231 whole entry): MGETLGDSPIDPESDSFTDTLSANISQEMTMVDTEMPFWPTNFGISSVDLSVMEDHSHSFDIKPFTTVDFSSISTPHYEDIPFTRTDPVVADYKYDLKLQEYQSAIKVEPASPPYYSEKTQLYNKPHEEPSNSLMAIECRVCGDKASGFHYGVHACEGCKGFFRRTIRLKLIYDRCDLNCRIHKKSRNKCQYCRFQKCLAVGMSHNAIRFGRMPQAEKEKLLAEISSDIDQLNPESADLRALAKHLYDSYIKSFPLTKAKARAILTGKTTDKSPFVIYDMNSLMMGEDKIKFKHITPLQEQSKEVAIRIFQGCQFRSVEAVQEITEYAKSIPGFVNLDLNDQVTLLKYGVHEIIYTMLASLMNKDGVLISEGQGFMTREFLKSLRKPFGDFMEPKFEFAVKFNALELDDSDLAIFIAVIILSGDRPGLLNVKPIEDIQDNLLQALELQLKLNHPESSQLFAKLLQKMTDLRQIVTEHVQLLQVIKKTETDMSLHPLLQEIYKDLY
compound,measurement,setting,value
COc1cccc2c1C(=O)c1c(O)c3c(c(O)c1C2=O)C[C@@](O)(C(=O)CO)C[C@@H]3O[C@H]1C[C@H](N)[C@H](O)[C@H](C)O1 [DOXORUBICIN],GI50,HepG2,40 nM
same,GI50,HT-29,50 nM
same,GI50,NCI-H460,90 nM
same,pIC50,Jurkat,4.34
same,pIC50,A-431,4.37
NYSTATIN,pIC50,Escherichia coli,5.14
same,pIC50,Staphylococcus aureus [1],5.14
same,pIC50,Bacillus subtilis,5.14
same,pIC50,Pseudomonas aeruginosa,5.14
same,pIC50,Candida albicans,5.14
N#Cc1c(/N=C/c2cc3cc(Br)ccc3[nH]2)sc2c1CCCCC2,pIC50,MCF7 [2],4.83
same,Ratio IC50,MCF7 [3],3.51
COc1ccc([C@H]2c3sc(=O)[nH]c3SC[C@H]2C=O)cc1,pEC50,Human gammaherpesvirus 4,7.15
C=CCNc1nc(C)c(C2=NN(C(N)=S)[C@H](c3ccc(Cl)cc3)C2)s1,MIC,Streptococcus pneumoniae,0.12 µg/mL
O=C(N[C@H](CO)[C@H](O)c1ccc([N+](=O)[O-])cc1)C(Cl)Cl [CHLORAMPHENICOL],pIC50,Escherichia coli; Escherichia coli,4.65
same,pIC50,Staphylococcus aureus [1]; Staphylococcus aureus,4.65
same,pIC50,Bacillus subtilis; Bacillus subtilis,4.65
same,pIC50,Pseudomonas aeruginosa; Pseudomonas aeruginosa,4.65
same,pIC50,Candida albicans; Candida albicans,4.65
CC1(C)S[C@@H]2[C@H](NC(=O)[C@H](N)c3ccccc3)C(=O)N2[C@H]1C(=O)O [AMPICILLIN],MIC,Streptococcus pneumoniae,0.03 µg/mL
N#Cc1ccc(/N=N/c2ccc(/C=C3\SC(=O)NC3=O)c(/N=N/c3ccc(C#N)cc3)c2O)cc1,Activity,RAW264.7,60%
COc1ccc(-c2csc(NC(=O)CSc3nnc(-c4ccc(Br)cc4)c(-c4ccc(Br)cc4)n3)n2)cc1,IC50,Alpha glucosidase,2.85 µM
O=C(c1cccc(Br)c1)N1CCC(c2cc(-c3snc(Cl)c3Cl)ns2)CC1,EC50,Psilocybe cubensis,0.046 µg/mL
same,EC50,Phytophthora infestans,0.27 µg/mL
COc1ccc(-c2nn(-c3ccc(S(C)(=O)=O)cc3)cc2/C=C2\SC(=O)NC2=O)cc1,pIC50,[4],6.06
same,inhibition in vivo at 50 mg/kg,Rattus norvegicus [5],80.2%
O=C1O[C@H]([C@@H](O)CO)C(O)=C1O [ASCORBIC ACID],pIC50,[6],4.77
COc1ccc2c(c1)c(CC(=O)O)c(C)n2C(=O)c1ccc(Cl)cc1 [INDOMETHACIN],inhibition in vivo at 10 mg/kg,Rattus norvegicus [7],47.7%
Cc1ccc(Nc2nc(N(C)C)c(C#N)s2)cc1C,pIC50,Jurkat,4.46
same,pIC50,A-431,4.46
N#Cc1c(-c2ccc(N3CCOCC3)cc2)csc1NC(=O)CN1CCOCC1,inhibition in vivo at 50 mg/kg,Rattus norvegicus [8],58.5%
O=S(=O)(CC1CS1)c1ccc(-n2cc(-c3ccc(-c4ccncc4)cc3)nn2)cc1 (configuration not stated),pIC50,[9],6.21
GENTAMICIN,MIC,Klebsiella pneumoniae,0.03 µg/mL
COc1ccc(C2SCC(=O)N2c2ccc3nc(Cc4ccc(O)cc4)c(=O)[nH]c3c2)cc1 (configuration not stated),pIC50,[6],4.71
O=C(O)c1sc(-c2ccc(Cl)cc2)cc1C1C=C(c2ccccc2)c2c1ncn1c(-c3ccc(Cl)cc3)nnc21 (configuration not stated),GI50,HepG2,20 nM
same,GI50,HT-29,30 nM
same,GI50,NCI-H460,50 nM
COc1ccc2nc3cc(Cl)ccc3c(Nc3sc4c(c3C#N)CCC4)c2c1,pIC50,Leishmania amazonensis,5.02
FC(F)(F)Oc1ccc(/N=c2\ssnc2Cl)nc1,pIC50,[10],6.01
Fc1ccc(-c2cn(Cc3csc(-c4ccccc4)n3)nn2)cc1,MIC,[11],8.99 µg/mL
O=C(Nc1nc(=S)ss1)c1ccc(Cl)cc1,MIC,[12],0.5 µg/mL
S=c1ssnc1-c1ccccc1,pEC50,[13],7.64
O=C(CC1SC(=O)NC1=O)Oc1ccc(/C=C2/SC(=O)NC2=O)cc1Br (configuration not stated),MIC,[14],7.81 µg/mL
same,MIC,Staphylococcus aureus [15],3.91 µg/mL
same,MIC,Staphylococcus aureus [16],3.91 µg/mL
N#Cc1ccccc1-c1nnc(-c2ccc(/C=C3\SC(=O)NC3=O)cc2)o1,GI50,MCF7 [17],4 nM
CCCCNC(=O)CN1C(=O)S/C(=C/c2ccc(Cl)cc2)C1=O,pEC50,[18],5.23
